“Also recorded” adds a separate entry of the source.
Key:
[1] = system: tomato seedlings (Solanum lycopersicum); conditions: 16-hour photoperiod, Guillaumot et al. 2016; cited from earlier work
[2] = system: fishing worms (maggots); assay: Non-toxicity to fishing worms (maggots), viability after spraying; assay type: in vivo; conditions: for toxicity to fishing worms (maggots): summary statement
Procedure: The maggots were placed in Petri dishes under a photoperiod (16 h) or under dark conditions in a phytotron (24° C.) for 24 h. […] The percentage viability was determined after 24 h.

[3] = system: Potato (Solanum tuberosum) cultivar: Coquine; assay: In vitro cultivation on Zn-TMPyP-treated medium, potato explants; assay type: in vivo; conditions: treated medium (3.5 μM Zn-TMPyP) compared to control
Procedure: (§1) Explants are propagated in a sterile manner from 1-month old seedlings for potato and two-month old seedlings for grapevines. The potato explants are propagated on a Murashige and Skoog synthetic medium supplemented with 2% sucrose and myo-inositol ((100 mg/L), pH 5.8. The grapevine explants are cultivated on ½ Chee and Pool medium supplemented with 2% sucrose, pH 5.9. The media are solidified with 0.8% Sobigel. Both media are supplied by Duchefa Biochemie, Haarlem, the Netherlands. The media are autoclaved as described above for the B5 medium. The grapevine explants are placed in a culture chamber at 25° C. and those of potato at 23° C., the same photoperiod and light intensity as for the seed germinations.

[4] = system: Poppy (Papaver rhoeas); assay: In vitro cultivation on Zn-TMPyP-treated medium, poppy; assay type: in vivo; conditions: 3.5 μM Zn-TMPyP, after 6 weeks
Procedure: (§2) The sterilization of the seeds is carried out according to the following protocol. Surface sterilization is first performed with 70% (v/v) ethanol for 2 minutes at ambient temperature. The ethanol is removed and the seeds are immersed in 20% (v/v) sodium hypochlorite for 15-20 minutes and then thoroughly rinsed with sterile water. The barley caryopses are left in the water for at least one hour before cultivation.
(§3) The germination medium for all of the seeds is Gamborg's synthetic medium, also referred to as B5, (Duchefa Biochemie, Haarlem, the Netherlands), supplemented with 2% sucrose (w/v) and solidified with 0.8% agar (Difco, Dallas, USA). The pH is adjusted to 5.8 with 1 M sodium hydroxide before autoclaving. After autoclaving (120° C., 20 minutes, 1 bar) and cooling of the medium in Petri dishes and/or jars, porphyrin is added at the desired concentration. After sterilization, the seeds are deposited on the solidified B5 medium containing or not containing the porphyrin, under a laminar flow hood. The Petri dishes and jars are placed in culture chambers (16 h photoperiod, 22° C., photon flux density ˜100 μmol·m^−2·s^−1 generated by cool daylight lamps (OSRAM Lumilux 24W)). The jars are used for the transfer of the seedlings and allow them to grow more appropriately.

[5] = Photostability/photodegradation test in water (Soret band, UV-visible spectrometry); conditions: solution without surfactant, photoperiod 16 h light/8 h dark
Excerpt: Monitoring the intensity of the Soret band as a function of the irradiation time makes it possible to calculate the percentage of degraded porphyrins.

[6] = system: Barley (Hordeum sativum); assay: In vitro cultivation on Zn-TMPyP-rich medium, barley; assay type: in vivo; conditions: 3.5 μM Zn-TMPyP-rich medium
Procedure: as §2
as §3, with “appropriately. […]” for “appropriately.”

[7] = system: Poppy (Papaver rhoeas); assay: Greenhouse foliar spraying test, poppy; conditions: foliar spraying 50 μM Zn-TMPyP
Procedure: (§5) The various seeds are cultivated in a greenhouse in commercial compost (universal compost, Fertiligene). The seeds were sown in the greenhouse under controlled temperature and humidity conditions (the temperature varies between 15° C. and 30° C. depending on the season, and the relative humidity varies from 50 to 70%).
(§6) Two spot treatments (about 10 sprays each) spaced 48 h apart were carried out one week after germination. The first treatment was carried out when the seedlings were in the cotyledon stage, the second when the seedlings were in the first-leaf stage.
(§7) The seedlings were monitored every 48 h. The control medium was sprayed with water at the same frequency.

[8] = system: Common nettle Urtica dioica; assay: In vitro cultivation on Zn-TMPyP-treated medium, nettle; assay type: in vivo; conditions: medium with Zn-TMPyP 3.5 μM, after 18 days
Procedure: as §2, §3

[9] = system: Tobacco (Nicotiana benthamiana); assay: In vitro cultivation on Zn-TMPyP-rich medium, tobacco; assay type: in vivo; conditions: 3.5 μM Zn-TMPyP-rich medium, one-and-a-half months of cultivation
Procedure: as §2, §3

[10] = system: Arabidopsis thaliana ws ecotype; assay: In vitro cultivation on Zn-TMPyP-treated medium, Arabidopsis; assay type: in vivo; conditions: medium with Zn-TMPyP 3.5 μM, after 1 month
Procedure: as §2, §3

[11] = system: Tomato Solanum lycopersicum var Marmande; assay: In vitro cultivation on Zn-TMPyP-rich medium, tomato; assay type: in vivo; conditions: 3.5 μM Zn-TMPyP-rich medium, after 22 days, compared with control
Procedure: as §2
as §3, with “appropriately. […]” for “appropriately.”

[12] = system: Barley (Hordeum sativum); assay: Greenhouse foliar spraying test, barley; conditions: foliar spraying 50 μM Zn-TMPyP, two treatments 48 h apart, after one month and two months
Procedure: as §5, §6, §7

[13] = system: antioxidant machinery (total thiols, catalase, guaiacol peroxidase) of tomato seedlings; assay: Total thiols, catalase and guaiacol peroxidase in tomato seedlings cultivated in vitro; assay type: in vivo, Solanum lycopersicum; conditions: tomato seedlings cultivated in vitro on 3.5 μM Zn-TMPyP-rich medium, 1 month
[14] = system: Spinach (Spinacia oleracea); assay: Example 4 greenhouse foliar spraying test, spinach; assay type: in vivo; conditions: 5 foliar sprayings 48 h apart, 50, 75, 100 μM, after 6 weeks
Procedure: (§4) Additional tests in a greenhouse were carried out. […] The treatments started at the cotyledon stage. The harvesting was carried out 6 weeks after germination (and 10 weeks for barley).

[15] = system: Grapevine (Vitis vinifera) cultivar: Sauvignon (clone 379); assay: In vitro cultivation on Zn-TMPyP-rich medium, grapevine explants; assay type: in vivo; conditions: 3.5 μM Zn-TMPyP-rich medium, two months of cultivation
Procedure: as §1

[16] = system: plants of interest (tomato, barley, wheat, spinach, turnip, corn, onion, sunflower); assay: Example 4 greenhouse foliar spraying test, plants of interest; assay type: in vivo; conditions: 5 foliar sprayings 48 h apart, regardless of concentration (50, 75, 100 μM), after 6 weeks (10 for barley)
Procedure: as §4

[17] = system: Tomato Solanum lycopersicum var Marmande; assay: Greenhouse foliar spraying test, tomato; conditions: foliar spraying 50 μM Zn-TMPyP, two treatments 48 h apart, after one month and two months
Procedure: as §5, §6, §7

[18] = system: adventitious plants (goosefoot, proso millet, rye-grass, dock, black nightshade, dandelion, chickweed); assay: Example 4 greenhouse foliar spraying test, adventitious plants; assay type: in vivo; conditions: after 6 weeks
Procedure: as §4

[19] = system: Millet Echinochloa frumentacea; assay: Greenhouse foliar spraying test, millet; conditions: foliar spraying 50 μM Zn-TMPyP, two treatments 48 h apart, after one month and two months
Procedure: as §5, §6, §7

[20] = system: antioxidant enzymes and molecules (total thiols, catalase, guaiacol peroxidase) of tomato seedlings; assay: Total thiols, catalase and guaiacol peroxidase in greenhouse tomato seedlings after foliar application; conditions: foliar application of 50 μM Zn-TMPyP, two months
Procedure: Seedlings (roots and aerial parts separated before freezing) are ground in liquid nitrogen. The powder is transferred into an Eppendorf tube and weighed (between 200 and 100 mg per extraction). The extract is acidified with 0.2 N vortexed HCl and centrifuged (13 000 g 10 min 4° C.). 500 μL of the supernatant is neutralized with 400 μL of NaOH (0.2 N) and 50 μL of Na2HPO4. Then, 700 μL of 0.12 M Na2HPO4, 6 mM EDTA and 6 mM DTNB are added to 200 μL of the neutralized solution. After establishing a glutathione range, the total thiols contained in the samples are determined by UV-vis spectrometry at 412 nm and related to the fresh weight.
Seedlings (roots and aerial parts separated before freezing) are ground in liquid nitrogen. […]
Catalase activity is quantifiable by measuring the disappearance of H2O2 by disproportionation into H2O and O2. […] The kinetics of the disappearance of H2O2 are measured for 200 seconds every 20 seconds at 240 nm. The activity is calculated using the molar extinction coefficient of H2O2 which is 43.6 mM^−1·cm^−1.
Its activity is measured by the oxidation of guaiacol in the presence of H2O2. […] The kinetics of the appearance of the oxidized guaiacol are measured for 120 seconds every 10 seconds at 436 nm. The activity is calculated using the molar extinction coefficient of H2O2 which is 25.5 mM^−1·cm^−1.

Question: Which results are given for “tetra(N-methylpyridyl)porphyrin tetrachloride [TMPyP]”?
Answer: tomato seedling growth in vitro [1]: significantly altered; toxicity to fishing worms (maggots) [2]: non-toxicity

Question: For “zinc tetra(N-methylpyridyl)porphyrin tetrachloride [Zn-TMPyP]”, which “growth of potato at the stem and roots” value [3] is on record?
Answer: The value was “slight growth retardation”.

Question: And the “response of poppy seedlings” value [4]?
Answer: The value was “remarkable adverse impact and inhibition”.

Question: What about the “days of photoperiod after which the solution disappears” value [5] of the same substance?
Answer: The value was 29 days.

Question: And the “appearance of barley leaves” value [6]?
Answer: Its value is “yellowing followed by wilting”.

Question: What about the “growth of the barley” value ([6]; after one month of cultivation) of the same substance?
Answer: Its value is “adversely impacted”.

Question: And the “time to first symptoms after the first treatment” value ([7]; adventitious plants (poppy, millet))?
Answer: Its value is 24 h.

Question: And the “time until the poppy is destroyed after the first treatment” value ([7]; first 10 sprayings)?
Answer: Its value is 48 h.

Question: And the “herbicidal effect on poppy” value ([7]; two treatments 48 h apart, after one month and two months)?
Answer: Its value is “completely dead; also recorded: completely destroyed”.

Question: What about the growth of nettle [8] of the same substance?
Answer: Its growth of nettle is “very significant inhibition”.

Question: And the “development of tobacco seedlings” value [9]?
Answer: Its value is “considerable inhibition”.

Question: What about the “growth of Arabidopsis” value [10] of the same substance?
Answer: Its value is “very significant inhibition”.

Question: And the development of tomato [11]?
Answer: The development of tomato was “significantly inhibited”.

Question: And the “growth of barley (plant of interest)” value [12]?
Answer: The value was “grow perfectly”.

Question: What about the “antioxidant machinery (total thiols, catalase, guaiacol peroxidase)” value [13] of the same substance?
Answer: The value was “significantly inhibited”.

Question: What about the growth of spinach [14] of the same substance?
Answer: Its growth of spinach is “slightly affected”.

Question: And the “development of grapevine seedlings” value [15]?
Answer: Its value is “considerable inhibition”.

Question: And the “growth of the plants of interest” value [16]?
Answer: Its value is “grow perfectly”.

Question: And the “growth of tomato (plant of interest)” value [17]?
Answer: The value was “grow perfectly”.

Question: And the “growth of the adventitious plants” value ([18]; 5 foliar sprayings 48 h apart, C1=50, C2=75, C3=100 μM, dose-dependent or at a specific dose)?
Answer: The value was “drastically adversely impacts”.

Question: What about the “destruction of the adventitious plants” value ([18]; 5 foliar sprayings, certain concentrations (of 50, 75, 100 μM)) of the same substance?
Answer: The value was “completely destroy”.

Question: And the “herbicidal effect on millet” value [19]?
Answer: The value was “completely dead”.

Question: What about the “antioxidant enzymes and molecules” value [20] of the same substance?
Answer: Its value is “remain constant”.

Question: What about the “thiols in the roots” value [20] of the same substance?
Answer: Its value is “increase”.

Question: What about the “tomato seedling growth in vitro” value [1] of the same substance?
Answer: Its value is “significantly altered”.

Question: What about the “effect on viability of maggots (fishing worms)” value ([2]; spraying of 50 μM Zn-TMPyP, 24 h, in the presence and in the absence of light) of the same substance?
Answer: The value was “harmlessness”.

Question: What about the “toxicity to fishing worms (maggots)” value [2] of the same substance?
Answer: The value was “non-toxicity”.
